Test results reported in US7932063B2, “Treatment of biomass to obtain fermentable sugars” (E. I. du Pont de Nemours and Company, priority 2005, dated 2011).
Where two headings read alike, the source gives them in different places.

Tested on: Z. mobilis strain 8b
[1] = medium supplemented with 6 g/L acetamide, pH 6.0, 30° C., vs unsupplemented control, FIG. 1
[2] = medium supplemented with 7.2 g/L acetic acid, pH 6.0, 30° C., vs unsupplemented control, FIG. 1

Excerpt: Fermentation medium was composed of 10 g/L yeast extract, 2 g/L KH2PO4, 70 g/L glucose, 40 g/L xylose and 0.1 M MES buffer.

Compound	final density of Z. mobilis [1]	growth rate of Z. mobilis [1]	inhibition of biocatalyst growth (summary statement referring to Example 12)	cell yield (as measured by dry cell mass) [2]	growth rate of Z. mobilis [2]
CC(N)=O [acetamide]	no influence	no influence	non-inhibitory	–	–
CC(=O)O [acetic acid]	–	–	–	lower cell yield	reduced growth rate
